Test results reported in patent US20230017786A1, “DEXTR[…] A DISEASE-MODIFYING TREATMENT FOR NEUROPSYCHIATRIC DISORDERS AND DISEASES” (priority 2020, published 2023).

Key:
[1] = biological target: T1, human NMDA receptor GluN1-GluN2C (Homo sapiens, UniProt Q05586+Q14957); assay: FLIPR calcium assay, test item effect on L-glutamate CRC, GluN1-GluN2C-CHO; format: cell-based
T1 construct: expressed in transfected cells; host or cells: CHO

[2] = biological target: T2, human NMDA receptor GluN1-GluN2D (Homo sapiens, UniProt O15399+Q05586); assay: FLIPR calcium assay, test item effect on L-glutamate CRC, GluN1-GluN2D-CHO; format: cell-based
T2 construct: expressed in transfected cells; host or cells: CHO
T2 sequence (O15399 28-1336, other chains not shown): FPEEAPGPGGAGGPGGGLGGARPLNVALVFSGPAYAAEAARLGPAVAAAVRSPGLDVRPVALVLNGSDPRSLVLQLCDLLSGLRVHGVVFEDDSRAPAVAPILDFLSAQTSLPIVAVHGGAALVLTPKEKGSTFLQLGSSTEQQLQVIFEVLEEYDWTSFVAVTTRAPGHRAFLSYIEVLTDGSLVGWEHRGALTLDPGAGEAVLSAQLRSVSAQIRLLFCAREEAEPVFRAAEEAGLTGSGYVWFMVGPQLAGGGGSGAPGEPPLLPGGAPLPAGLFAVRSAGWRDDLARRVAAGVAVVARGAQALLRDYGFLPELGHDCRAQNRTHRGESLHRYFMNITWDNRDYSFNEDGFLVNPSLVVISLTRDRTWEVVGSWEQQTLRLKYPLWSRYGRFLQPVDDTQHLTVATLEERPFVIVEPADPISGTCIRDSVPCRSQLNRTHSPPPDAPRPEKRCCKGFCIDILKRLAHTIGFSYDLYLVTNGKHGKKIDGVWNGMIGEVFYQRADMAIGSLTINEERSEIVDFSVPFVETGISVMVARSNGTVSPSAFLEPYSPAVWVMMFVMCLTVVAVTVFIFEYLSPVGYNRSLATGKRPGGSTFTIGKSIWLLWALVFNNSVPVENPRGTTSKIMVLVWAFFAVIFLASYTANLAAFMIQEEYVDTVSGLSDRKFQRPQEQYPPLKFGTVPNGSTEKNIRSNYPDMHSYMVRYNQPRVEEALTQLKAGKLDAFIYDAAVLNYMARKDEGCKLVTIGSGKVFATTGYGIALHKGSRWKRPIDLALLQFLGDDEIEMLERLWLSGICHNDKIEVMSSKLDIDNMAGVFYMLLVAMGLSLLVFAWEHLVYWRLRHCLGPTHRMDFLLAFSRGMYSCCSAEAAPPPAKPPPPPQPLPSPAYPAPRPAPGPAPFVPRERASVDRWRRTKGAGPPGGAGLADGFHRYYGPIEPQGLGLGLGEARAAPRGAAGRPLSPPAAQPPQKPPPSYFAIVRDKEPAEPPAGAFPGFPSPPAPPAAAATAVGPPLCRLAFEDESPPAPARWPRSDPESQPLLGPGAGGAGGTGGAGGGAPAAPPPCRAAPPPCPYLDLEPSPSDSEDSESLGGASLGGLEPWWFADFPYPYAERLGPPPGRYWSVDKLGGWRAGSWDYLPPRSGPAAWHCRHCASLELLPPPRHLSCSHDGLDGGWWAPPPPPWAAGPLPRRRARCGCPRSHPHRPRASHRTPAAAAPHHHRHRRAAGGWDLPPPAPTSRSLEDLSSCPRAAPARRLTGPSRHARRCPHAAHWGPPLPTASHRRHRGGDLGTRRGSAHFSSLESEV

[3] = biological target: T3, recombinant human NMDAR GluN1 plus GluN2D (Homo sapiens, UniProt O15399+Q05586); assay: FLIPR calcium assay, gentamicin as PAM (Example 5 Part I), GluN2D cell line; format: cell-based; settings: 10 μM test item; dextromethadone in presence and absence of 10 μM gentamicin
T3 construct: expressed in transfected cells; host or cells: CHO
T3 sequence (O15399 28-1336, other chains not shown): as above
Text: A FLIPR calcium assay was used to profile gentamicin using stable cell lines expressing diheteromeric recombinant human NMDARs, containing GluN1 plus one amongst GluN2A, GluN2B, GluN2C or GluN2D subunit.

[4] = biological target: T4, human NMDA receptor GluN1-GluN2A (Homo sapiens, UniProt Q05586+Q12879); assay: FLIPR calcium assay, quinolinic acid, gentamicin, dextromethadone (Example 5 Part II), GluN1-GluN2A-CHO; format: cell-based; set-up: calcium response (mean±SEM): unit not given here; settings: 10 μM glycine; for calcium response (mean±SEM): GluN2A, n=42
T4 construct: expressed in transfected cells; host or cells: CHO
T4 sequence (Q12879 23-1464, other chains not shown): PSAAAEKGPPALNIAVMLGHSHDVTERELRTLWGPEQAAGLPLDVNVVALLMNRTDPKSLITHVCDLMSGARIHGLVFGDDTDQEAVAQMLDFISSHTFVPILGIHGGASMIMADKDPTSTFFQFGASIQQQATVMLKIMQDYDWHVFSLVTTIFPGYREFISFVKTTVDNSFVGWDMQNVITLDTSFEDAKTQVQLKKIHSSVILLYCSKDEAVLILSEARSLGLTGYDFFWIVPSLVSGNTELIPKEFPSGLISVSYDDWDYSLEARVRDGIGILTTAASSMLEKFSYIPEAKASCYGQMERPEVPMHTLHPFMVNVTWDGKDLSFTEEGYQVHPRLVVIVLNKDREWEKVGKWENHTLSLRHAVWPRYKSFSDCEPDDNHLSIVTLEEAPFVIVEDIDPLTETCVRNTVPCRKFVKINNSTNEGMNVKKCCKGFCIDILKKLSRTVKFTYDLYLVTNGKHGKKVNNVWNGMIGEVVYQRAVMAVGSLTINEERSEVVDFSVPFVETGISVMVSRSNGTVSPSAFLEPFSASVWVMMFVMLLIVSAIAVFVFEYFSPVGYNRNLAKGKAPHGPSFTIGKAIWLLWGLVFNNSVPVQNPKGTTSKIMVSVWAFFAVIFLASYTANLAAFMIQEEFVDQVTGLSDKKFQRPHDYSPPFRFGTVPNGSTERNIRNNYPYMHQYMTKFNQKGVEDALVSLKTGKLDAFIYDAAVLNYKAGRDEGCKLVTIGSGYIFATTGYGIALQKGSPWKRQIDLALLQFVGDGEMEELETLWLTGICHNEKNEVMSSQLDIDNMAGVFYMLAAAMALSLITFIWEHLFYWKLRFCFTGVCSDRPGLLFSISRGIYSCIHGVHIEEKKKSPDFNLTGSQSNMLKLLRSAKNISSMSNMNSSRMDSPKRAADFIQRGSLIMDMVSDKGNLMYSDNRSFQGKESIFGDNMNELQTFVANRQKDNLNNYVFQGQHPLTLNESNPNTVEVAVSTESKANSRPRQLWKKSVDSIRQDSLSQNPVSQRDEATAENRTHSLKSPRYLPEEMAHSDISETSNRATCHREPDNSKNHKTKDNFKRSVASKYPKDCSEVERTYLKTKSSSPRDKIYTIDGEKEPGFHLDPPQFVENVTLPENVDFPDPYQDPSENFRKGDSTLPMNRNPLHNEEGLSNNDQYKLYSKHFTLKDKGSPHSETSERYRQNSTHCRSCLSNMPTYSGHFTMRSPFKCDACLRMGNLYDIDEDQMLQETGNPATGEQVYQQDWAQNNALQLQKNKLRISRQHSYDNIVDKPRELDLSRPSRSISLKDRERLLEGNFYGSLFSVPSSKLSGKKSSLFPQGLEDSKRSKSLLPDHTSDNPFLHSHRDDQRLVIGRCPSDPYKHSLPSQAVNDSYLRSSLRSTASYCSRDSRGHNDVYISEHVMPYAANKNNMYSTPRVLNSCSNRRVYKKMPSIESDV
How it was run: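 CHO lines expressing diheteromeric human GluN1/GluN2A–D, loaded 1 h with Fluo-4, tested by FLIPR for intracellular calcium with 10 μM glycine present. Quinolinic acid, gentamicin and test items were run as concentration-response curves, alone or combined. EC50 obtained from a four-parameter Hill fit.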

patients with MDD = assay: Phase 2 sub-analysis, MADRS and SDQ composite indexes and single functional items; format: in vivo, human
Text: The present inventors selected items from the MADRS and SDQ scales and created Composite Indexes of cognitive and motivational functions: Cognitive composite index: [MADRS 6 (concentration difficulties), SDQ 16 (wakefulness), SDQ 22 (slowed down feeling, SDQ 35 (ability to focus), SDQ 36 (ability to remember), SDQ 37 (ability to find words), SDQ 38 (sharpness), SDQ 39 (ability to make decisions), SDQ 42 (ability to work)]; Motivation-energy composite index: [MADRS 7 (lassitude), SDQ 7 (motivation), SDQ 20 (energy)]; Mood composite index: [MADRS 1 (reported sadness), SDQ 1, 2, 3 (mood)]; Sleep composite index: [MADRS 4 (reduced sleep), SDQ 13 (ability to fall asleep), SDQ 14 (ability to stay asleep in the middle of the night), SDQ 15 (ability to stay asleep around the time before waking up)]; The present inventors also separately analyzed two additional single functional items part of the SDQ. 1) Social function, single question (SDQ 41, social functioning); 2) sexual function, single question (SDQ 40, sexual functioning).
Analysis of Change from Baseline at different times after the onset of treatment: The likelihood-based method applied is the Mixed-Effect Model Repeated Measures (MMRM) model with fixed-effect terms for treatment, visit (Day 2, Day 4, Day 7, Day 14) and the interaction between treatment and visit. The LS means and the LS means difference (the difference between REL-1017 and Placebo in the LS means) are provided along with the p-value for testing the hypothesis of no difference and the Cohen's effect size (calculated based on the LS mean differences and the pooled standard deviations). The 25 mg and 50 mg dosages are considered separately and combined: 25 mg+50 mg, Combined Treatment Group (CTG).

healthy subjects = assay: Phase 1 SAD and MAD studies, safety and tolerability
[5] = operational analysis for allosteric modulators
[6] = 25 mg, day not given (first set)
[7] = 50 mg, day not given (first set)
[8] = CTG 25 mg+50 mg, day not given (first set)

T1 sequence (Q14957 20-1233, other chains not shown): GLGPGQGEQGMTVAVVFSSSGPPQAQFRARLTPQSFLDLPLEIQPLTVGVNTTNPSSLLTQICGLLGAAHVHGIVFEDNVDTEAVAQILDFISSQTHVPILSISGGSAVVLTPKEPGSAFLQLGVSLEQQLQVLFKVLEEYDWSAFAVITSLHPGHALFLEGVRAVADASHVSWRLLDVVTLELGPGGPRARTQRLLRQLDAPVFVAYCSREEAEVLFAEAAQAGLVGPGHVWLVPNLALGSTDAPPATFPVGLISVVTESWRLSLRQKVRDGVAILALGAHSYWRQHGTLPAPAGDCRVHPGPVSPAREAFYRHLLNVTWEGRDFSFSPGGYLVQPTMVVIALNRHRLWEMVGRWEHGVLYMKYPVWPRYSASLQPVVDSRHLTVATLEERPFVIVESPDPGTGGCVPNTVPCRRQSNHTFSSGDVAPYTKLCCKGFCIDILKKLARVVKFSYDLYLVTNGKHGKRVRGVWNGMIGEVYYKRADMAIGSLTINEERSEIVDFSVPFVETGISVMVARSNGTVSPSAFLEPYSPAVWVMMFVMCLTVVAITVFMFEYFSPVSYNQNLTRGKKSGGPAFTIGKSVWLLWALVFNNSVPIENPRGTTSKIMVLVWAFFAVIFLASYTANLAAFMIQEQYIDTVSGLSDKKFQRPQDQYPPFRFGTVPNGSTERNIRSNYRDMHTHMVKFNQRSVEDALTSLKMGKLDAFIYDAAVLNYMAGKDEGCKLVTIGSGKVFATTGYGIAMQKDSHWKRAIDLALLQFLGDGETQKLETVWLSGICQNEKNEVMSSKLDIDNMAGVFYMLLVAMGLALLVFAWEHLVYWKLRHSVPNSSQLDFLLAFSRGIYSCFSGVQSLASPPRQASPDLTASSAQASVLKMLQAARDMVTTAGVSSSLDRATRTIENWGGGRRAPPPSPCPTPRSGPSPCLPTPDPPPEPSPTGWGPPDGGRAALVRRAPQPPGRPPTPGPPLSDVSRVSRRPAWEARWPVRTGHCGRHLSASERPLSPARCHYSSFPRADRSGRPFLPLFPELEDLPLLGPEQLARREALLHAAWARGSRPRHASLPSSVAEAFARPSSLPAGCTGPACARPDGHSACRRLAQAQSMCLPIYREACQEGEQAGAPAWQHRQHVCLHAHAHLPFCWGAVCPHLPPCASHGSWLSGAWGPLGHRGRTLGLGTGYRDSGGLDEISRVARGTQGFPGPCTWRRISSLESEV

CCC(=O)C(C[C@H](C)N(C)C)(c1ccccc1)c1ccccc1 [Dextromethadone, dextromethadone]
α, estimated cooperativity term [1, 5]: 0.17 | L-glutamate CRC HillSlope ([1]; with test item 49 nM): 1.3 | L-glutamate CRC LogEC50 ([1]; with test item 49 nM): −6.8 | L-glutamate CRC HillSlope ([1]; with test item 195 nM): 1.4 | L-glutamate CRC LogEC50 ([1]; with test item 195 nM): −6.8 | L-glutamate CRC HillSlope ([1]; with test item 781 nM): 2.2 | L-glutamate CRC LogEC50 ([1]; with test item 781 nM): −6.8 | L-glutamate CRC HillSlope ([1]; with test item 3.1 μM): 1.4 | L-glutamate CRC LogEC50 ([1]; with test item 3.1 μM): −6.8 | L-glutamate CRC HillSlope ([1]; with test item 12.5 μM): 1.5 | L-glutamate CRC LogEC50 ([1]; with test item 12.5 μM): −6.7 | L-glutamate CRC HillSlope ([1]; with test item 50 μM): 1.7 | L-glutamate CRC LogEC50 ([1]; with test item 50 μM): −6.6 | α, estimated cooperativity term [2, 5]: 0.22 | L-glutamate CRC HillSlope ([2]; with test item 49 nM): 1.3 | L-glutamate CRC LogEC50 ([2]; with test item 49 nM): −7.5 | L-glutamate CRC HillSlope ([2]; with test item 195 nM): 1.3 | L-glutamate CRC LogEC50 ([2]; with test item 195 nM): −7.5 | L-glutamate CRC HillSlope ([2]; with test item 781 nM): 1.7 | L-glutamate CRC LogEC50 ([2]; with test item 781 nM): −7.5 | L-glutamate CRC HillSlope ([2]; with test item 3.1 μM): 1.5 | L-glutamate CRC LogEC50 ([2]; with test item 3.1 μM): −7.4 | L-glutamate CRC HillSlope ([2]; with test item 12.5 μM): 1.1 | L-glutamate CRC LogEC50 ([2]; with test item 12.5 μM): −7.1 | L-glutamate CRC LogEC50 ([2]; with test item 50 μM): −6.9 | calcium entry induced by 0.04 μM L-glutamate [3]: significantly reduced | calcium entry induced by 0.2 μM L-glutamate [3]: significantly reduced | calcium entry induced by 10 μM L-glutamate [3]: significantly reduced | calcium response (mean±SEM) ([4]; 0.04 μM L-Glu + 10 μM DXT): 0.5 ± 0.2 | calcium response (mean±SEM) ([4]; 0.04 μM L-Glu + 100 μM QA + 10 μM DXT): 3.4 ± 0.2 | calcium response (mean±SEM) ([4]; 0.04 μM L-Glu + 1000 μM QA + 10 μM DXT): 32 ± 0.7 | calcium response (mean±SEM) ([4]; 0.2 μM L-Glu + 10 μM DXT): 14 ± 0.4 | calcium response (mean±SEM) ([4]; 0.2 μM L-Glu + 100 μM QA + 10 μM DXT): 15 ± 0.5 | calcium response (mean±SEM) ([4]; 0.2 μM L-Glu + 1000 μM QA + 10 μM DXT): 35 ± 1.0 | % effect on calcium entry, 100 QA + 10 DXT ([4]; 100 μM QA + 10 μM DXT): −0.2 ± 0.2% | calcium response (mean±SEM) ([4]; 1000 μM QA + 10 μM DXT): 34 ± 0.6 | % effect on calcium entry, 1000 QA + 10 DXT ([4]; 1000 μM QA + 10 μM DXT): 34 ± 0.6% | calcium response (mean±SEM) ([4]; 1000 μM QA + 10 μg/ml GENT + 10 μM DXT): 34 ± 0.6 | calcium response (mean±SEM) ([4]; Table 41: 0.04 μM L-Glu + 10 μM DXT): 0.5 ± 0.2 | calcium response (mean±SEM) ([4]; Table 43: 0.2 μM L-Glu + 10 μM DXT): 14 ± 0.4 | Social function (SDQ 41), LS mean difference vs placebo (patients with MDD; 25 mg, Day 7): −1.07 | Social function (SDQ 41), effect size (patients with MDD; 25 mg, Day 7): 0.65 | Sexual function (SDQ 40), LS mean difference vs placebo (patients with MDD; 25 mg, Day 14): −1.32 | Sexual function (SDQ 40), effect size (patients with MDD; 25 mg, Day 14): 0.93 | Social function (SDQ 41), LS mean difference vs placebo (patients with MDD; 25 mg, Day 14): −1,246 | Social function (SDQ 41), effect size (patients with MDD; 25 mg, Day 14): 0.99 | Sexual function (SDQ 40), LS mean difference vs placebo (patients with MDD; [6]): −0.66 | Sexual function (SDQ 40), effect size (patients with MDD; [6]): 0.48 | Social function (SDQ 41), LS mean difference vs placebo (patients with MDD; 50 mg, Day 7): −1 | Social function (SDQ 41), effect size (patients with MDD; 50 mg, Day 7): 0.57 | Sexual function (SDQ 40), LS mean difference vs placebo (patients with MDD; 50 mg, Day 14): −0.4 | Sexual function (SDQ 40), effect size (patients with MDD; 50 mg, Day 14): 0.29 | Social function (SDQ 41), effect size (patients with MDD; 50 mg, Day 14): 0.98 | Sexual function (SDQ 40), LS mean difference vs placebo (patients with MDD; [7]): −0.28 | Sexual function (SDQ 40), effect size (patients with MDD; [7]): 0.19 | Social function (SDQ 41), effect size (patients with MDD; CTG 25 mg+50 mg, Day 7): 0.61 | Sexual function (SDQ 40), LS mean difference vs placebo (patients with MDD; CTG 25 mg+50 mg, Day 14): −0.86 | Sexual function (SDQ 40), effect size (patients with MDD; CTG 25 mg+50 mg, Day 14): 0.59 | Social function (SDQ 41), LS mean difference vs placebo (patients with MDD; CTG 25 mg+50 mg, Day 14): −1.19 | Social function (SDQ 41), effect size (patients with MDD; CTG 25 mg+50 mg, Day 14): 0.99 | Sexual function (SDQ 40), LS mean difference vs placebo (patients with MDD; [8]): −0.46 | Sexual function (SDQ 40), effect size (patients with MDD; [8]): 0.32 | QTcF changes from base-line (healthy subjects; SAD and MAD): none of the changes were considered clinically significant | respiratory depression, dissociative and psychotomimetic effects, withdrawal signs and symptoms (healthy subjects; SAD and MAD, abrupt discontinuation): no evidence | tolerability (healthy subjects; single doses up to 150 mg and daily doses up to 75 mg for 10 days): well tolerated
